{"source": "patent US20130274258A1", "about": "“CARBAZOLE AND CARBOLINE DERIVATIVES, AND PREPARATION AND THERAPEUTIC APPLICATIONS THEREOF” (PHILIP MORRIS PRODUCTS S.A., priority 2010, published 2013)", "key": {"[1]": {"test": "Pharmacokinetics after intravenous injection, plasma concentration", "assay_type": "in vivo", "conditions": "mice, 15 mg/kg intravenous", "experimental": "The pharmacokinetics of E3 and E35 were investigated. Mice intravenously injected with 15 mg/kg of E3 were bled after 0, 1, 5, 10, 20, 30, 60, 120 and 480 minutes. […] For E35, mice intravenously injected with 30 mg/kg of […] were bled after 0, 1, 5, 10, 20, 30, 60, 120 and 480 minutes. […] Concentration then decreased steadily over the 8 hours of the study. During the first four hours after injection, circulating concentrations of E3 and E35 were found largely similar."}, "melanoma A2058": {"system": "melanoma A2058", "test": "Xenograft model in nude mice, melanoma A2058", "assay_type": "in vivo, human", "experimental": "(§1) The compounds of the invention were evaluated in human tumor xenograft mouse models. Nude mice were subcutaneously implanted with tumor cells (melanoma A2058, colon carcinoma HCT116, fibrosarcoma HT1080 and acute myelocytic leukemia MV114) and when the tumor reached a volume of about 100-150 mm^3, treatment was initiated. Tumor growth was followed over time until tumor volume reached 1000-1500 mm^3 or up to 60 days. An example of how tumor developed over time when the animals were administered or not with E3 three times once a week (qwk×3) is presented in FIG. 7. […]"}, "caspase 3 and 7": {"system": "caspase 3 and 7", "test": "Apoptosis induction in Jurkat cells, caspase 3 and 7 assay", "assay_type": "cell-based", "experimental": "Compounds were assessed for their ability to induce apoptosis of Jurkat cells at 2 and 10 micromolar after 4 and 22 hours.\nIn order to firmly establish that the compounds of the invention cause cytotoxicity through apoptosis, IC50 of five compounds of the invention, doxorubicin and staurosporin were determined in the caspase assays; results are presented in Table 2. Importantly, the IC50 determined in the Alamar Blue and in the caspase assays were largely overlapping."}, "Jurkat cells [2]": {"system": "Jurkat cells", "test": "Jurkat cell viability, resazurin (Alamar Blue) assay", "assay_type": "cell-based", "conditions": "Homo sapiens, Jurkat", "experimental": "The compounds were tested for pharmacological activity. In each of the tests, each compound was tested at […] in duplicates. […] The percentage of response relative to the DMSO control was then calculated for the mean value of the duplicates of each test. The values of the three tests were finally averaged and the standard deviations calculated.\nJurkat cells (10'000 cells/well) were incubated in the presence of various concentrations of compounds, doxorubicin or staurosporine. Twenty-two hours later, cells were incubated with resazurin (20 μg/ml) for 4 hours and fluorescence was measured at 590 nm."}, "human tumor xenograft": {"system": "human tumor xenograft", "test": "Human tumor xenograft mouse models, summary over models", "assay_type": "in vivo", "conditions": "nude mice, three times once a week (qwk×3), FIG. 7", "experimental": "as §1"}, "colon carcinoma HCT116": {"system": "colon carcinoma HCT116", "test": "Xenograft model in nude mice, colon carcinoma HCT116", "assay_type": "in vivo, human", "experimental": "as §1"}, "purified porcine tubulin": {"molecular_target": "purified porcine tubulin (Sus scrofa, UniProt P02550+P02554)", "sequence (P02554 whole entry)": "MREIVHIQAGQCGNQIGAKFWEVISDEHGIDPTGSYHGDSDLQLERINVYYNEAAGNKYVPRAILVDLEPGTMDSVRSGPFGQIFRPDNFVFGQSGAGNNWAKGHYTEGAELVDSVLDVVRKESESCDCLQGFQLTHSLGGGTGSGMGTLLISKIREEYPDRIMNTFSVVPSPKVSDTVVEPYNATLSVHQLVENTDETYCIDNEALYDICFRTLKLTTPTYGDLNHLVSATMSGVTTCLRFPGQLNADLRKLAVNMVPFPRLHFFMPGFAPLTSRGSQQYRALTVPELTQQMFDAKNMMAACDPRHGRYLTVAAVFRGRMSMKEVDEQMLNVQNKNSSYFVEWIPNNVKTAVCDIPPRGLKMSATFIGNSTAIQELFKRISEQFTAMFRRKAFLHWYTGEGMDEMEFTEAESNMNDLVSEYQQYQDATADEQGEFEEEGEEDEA", "sequence (P02550 whole entry)": "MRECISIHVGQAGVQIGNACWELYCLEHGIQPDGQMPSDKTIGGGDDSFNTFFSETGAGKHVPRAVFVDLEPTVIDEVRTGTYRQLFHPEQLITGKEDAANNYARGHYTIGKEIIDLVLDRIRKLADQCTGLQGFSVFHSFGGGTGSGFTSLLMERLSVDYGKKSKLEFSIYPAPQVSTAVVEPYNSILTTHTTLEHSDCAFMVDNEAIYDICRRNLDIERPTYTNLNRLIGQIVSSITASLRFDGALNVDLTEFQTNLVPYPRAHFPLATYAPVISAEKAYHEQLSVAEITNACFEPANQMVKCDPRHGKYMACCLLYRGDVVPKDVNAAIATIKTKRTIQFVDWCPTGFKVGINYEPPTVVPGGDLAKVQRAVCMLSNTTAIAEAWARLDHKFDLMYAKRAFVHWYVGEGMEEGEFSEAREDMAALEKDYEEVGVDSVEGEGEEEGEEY", "test": "Inhibition of 3H-labeled colchicine binding to purified tubulin, scintillation proximity assay", "conditions": "graded doses", "experimental": "A series of compounds according to the invention and C14 vincristine and colchicine were tested for their capacity to inhibit ^3H-labeled colchicine binding to purified tubulin. Briefly, a limiting amount of tritium-labeled colchicine and graded doses of test compounds were added to purified porcine tubulin. After an incubation period, radioactivity associated with tubulin was determined using a scintillation proximity assay. […] By showing that these compounds interact with the colchicine binding site, it differentiates them from the tubulin inhibitors of the Vinca alkaloid- and taxane-types. The results also indicate that the compounds of the invention can be used in combination with the Vinca alkaloid- and taxane-types of tubulin inhibitors since they bind to a different aspect of tubulin, and likely affect tubulin polymerization via a different mechanism. The results also indicate that the compounds of the invention can be used even in patients who are refractory or non-responsive to other tubulin inhibitors, such as the tubulin inhibitors of the Vinca alkaloid- and taxane-types."}, "Jurkat cells [3]": {"system": "Jurkat cells", "test": "Annexin V staining of Jurkat cells by flow cytometry", "assay_type": "cell-based", "conditions": "Homo sapiens, 22 hours, 0.005 to 10 μM, read-out: half-maximal annexin V staining", "experimental": "Jurkat cells were cultured for 22 hours in the presence of E3 at 1.1 μM from a stock solution at 10 mM in DMSO or in the presence of graded concentrations of E3 (0.005 to 10 μM). Then, the cell's were stained with phycoerythrin-labeled annexin V following the instructions of the manufacturer (Millipore) and analyzed by flow cytometry (Guava, Millipore) to determine annexin V staining."}, "[4]": {"system": "acute myelocytic leukemia MV114", "test": "Xenograft model in nude mice, acute myelocytic leukemia MV114", "assay_type": "in vivo, human", "experimental": "as §1"}, "[5]": {"system": "panel of human tumor cell lines", "test": "Sensitivity of a panel of human tumor cell lines, Alamar Blue", "assay_type": "cell-based", "conditions": "graded doses, 22 hours + 4 hours Alamar Blue", "experimental": "Sensitivity and resistance of a panel of human tumor cell lines to treatment with E3 were investigated. An optimal number of cells (usually between 2'000 and 5'000 for adherent cells and 10'000 for cells growing in suspension) from the different tumor lines were treated with graded doses of E3. After 22 hours, Alamar Blue was added following the instructions provided by the manufacturer (Invitrogen). Four hours later, fluorescence of the wells was determined at 590 nm."}, "fibrosarcoma HT1080": {"system": "fibrosarcoma HT1080", "test": "Xenograft model in nude mice, fibrosarcoma HT1080", "assay_type": "in vivo, human", "experimental": "as §1"}, "[6]": {"test": "Solubilization in intravenous formulation", "assay_type": "physicochemical", "conditions": "aqueous with cosolvent or surfactant or cyclodextrin; 5% Cremophor and 5% ethanol in water", "description": "This formulation was then used for the subsequent animal studies (maximal tolerated dose, pharmacokinetics and efficacy in cancer models)."}, "[7]": {"conditions": "median, endpoint = death or defined tumor volume, 23 without treatment"}}, "data": [{"smiles": "Cc1nccc2c1[nH]c1ccc(-c3cc(Cl)cc(Cl)c3)cc12", "note": "[Example E3, 6-(3,5-dichlorophenyl)-1-methyl-9H-pyrido[3,4-b]indole]", "values": [{"measurement": "exposure (plasma concentration) for several hours", "setting": "[1]", "result": "3 to 10", "unit": "µg/mL"}, {"measurement": "concentration at 1 min", "setting": "[1]; mouse, plasma, 1 minute after injection", "result": 60000, "unit": "ng/mL"}, {"measurement": "concentration at 20 min", "setting": "[1]; mouse, plasma, 20 minutes", "result": 8000, "unit": "ng/mL"}, {"measurement": "concentration at 8 h", "setting": "[1]; mouse, plasma, 8 hours", "result": 3000, "unit": "ng/mL"}, {"measurement": "% time delay to reach study endpoint relative to no treatment", "setting": "melanoma A2058; best treatment", "result": 22, "unit": "%"}, {"measurement": "Days to reach study endpoint with best treatment", "setting": "melanoma A2058; [7]", "result": 28, "unit": "days"}, {"measurement": "caspase 3 and 7 activity compared to solvent control (%)", "setting": "caspase 3 and 7; 2 μM after 4 h", "result": "−13.6", "unit": "%"}, {"measurement": "caspase 3 and 7 activity compared to solvent control (%)", "setting": "caspase 3 and 7; 2 μM after 22 h", "result": 689.0, "unit": "%"}, {"measurement": "caspase 3 and 7 activity compared to solvent control (%)", "setting": "caspase 3 and 7; 10 μM after 4 h", "result": 12.7, "unit": "%"}, {"measurement": "caspase 3 and 7 activity compared to solvent control (%)", "setting": "caspase 3 and 7; 10 μM after 22 h", "result": 743.7, "unit": "%"}, {"measurement": "IC50", "setting": "caspase 3 and 7; Homo sapiens, Jurkat cells, caspase 3/7 assay", "result": 0.054, "unit": "µM"}, {"measurement": "IC50", "setting": "Jurkat cells [2]", "result": 89, "unit": "nM"}, {"measurement": "effect on tumor growth", "setting": "human tumor xenograft", "result": "delayed tumor growth"}, {"measurement": "% time delay to reach study endpoint relative to no treatment", "setting": "colon carcinoma HCT116; best treatment", "result": 57, "unit": "%"}, {"measurement": "Days to reach study endpoint with best treatment", "setting": "colon carcinoma HCT116; [7]", "result": 36, "unit": "days"}, {"measurement": "inhibition of 3H-labeled colchicine binding to tubulin", "setting": "purified porcine tubulin", "result": "inhibited binding of colchicine"}, {"measurement": "EC50", "setting": "Jurkat cells [3]", "result": "100 to 200", "unit": "nM"}, {"measurement": "% time delay to reach study endpoint relative to no treatment", "setting": "[4]; best treatment", "result": 52, "unit": "%"}, {"measurement": "Days to reach study endpoint with best treatment", "setting": "[4]; median, endpoint = death or defined tumor volume, 21 without treatment", "result": 32, "unit": "days"}, {"measurement": "sensitivity of tumor cell lines of hematopoietic origin versus other cell lines", "setting": "[5]", "result": "more sensitive than the other cell lines"}, {"measurement": "% time delay to reach study endpoint relative to no treatment", "setting": "fibrosarcoma HT1080; best treatment", "result": 91, "unit": "%"}, {"measurement": "Days to reach study endpoint with best treatment", "setting": "fibrosarcoma HT1080; [7]", "result": 44, "unit": "days"}, {"measurement": "solubility", "setting": "[6]", "result": "≤ 3300", "unit": "µg/mL"}]}]}
